The record followed here is BindingDB's records for PubMed 11082457 (Centre De Recherches De Croissy, 2000).

Several values for one entry are separate records, joined by “and”; a condition that tells them apart may be missing. Equal values may be shown once.

In experiment [1] the target is T1, Alpha-2C adrenergic receptor (Homo sapiens, UniProt P18825).
T1 sequence (P18825 whole entry): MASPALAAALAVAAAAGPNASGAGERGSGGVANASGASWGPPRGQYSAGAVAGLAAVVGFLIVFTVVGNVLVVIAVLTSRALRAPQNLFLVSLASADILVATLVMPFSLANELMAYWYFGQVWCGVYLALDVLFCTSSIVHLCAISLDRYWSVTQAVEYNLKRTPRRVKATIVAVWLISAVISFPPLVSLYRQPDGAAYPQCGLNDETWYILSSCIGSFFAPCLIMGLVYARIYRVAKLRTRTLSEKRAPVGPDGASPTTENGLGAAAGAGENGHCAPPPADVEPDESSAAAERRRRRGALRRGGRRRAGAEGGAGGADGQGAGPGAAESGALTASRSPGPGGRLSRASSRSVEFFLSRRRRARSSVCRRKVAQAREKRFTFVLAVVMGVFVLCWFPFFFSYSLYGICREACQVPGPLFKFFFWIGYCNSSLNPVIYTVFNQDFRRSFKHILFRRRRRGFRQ

Experiment [2] concerns the target T2, Alpha-2A adrenergic receptor [16-465] (Rattus norvegicus, UniProt P22909).
T2 construct: 16-465
T2 sequence (P22909 whole entry): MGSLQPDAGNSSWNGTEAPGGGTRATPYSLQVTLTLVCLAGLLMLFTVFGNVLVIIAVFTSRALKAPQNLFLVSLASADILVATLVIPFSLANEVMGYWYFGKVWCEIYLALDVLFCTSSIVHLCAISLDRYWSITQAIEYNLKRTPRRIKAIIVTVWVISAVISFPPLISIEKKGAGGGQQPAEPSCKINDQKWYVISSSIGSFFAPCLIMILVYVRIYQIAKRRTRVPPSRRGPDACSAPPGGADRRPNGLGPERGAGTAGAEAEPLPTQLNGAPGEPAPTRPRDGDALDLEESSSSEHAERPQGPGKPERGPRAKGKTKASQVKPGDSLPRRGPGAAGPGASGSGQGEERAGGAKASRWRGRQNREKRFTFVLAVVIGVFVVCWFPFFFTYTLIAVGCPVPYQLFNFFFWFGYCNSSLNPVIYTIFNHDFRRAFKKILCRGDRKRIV

Experiment [3] addresses Beta-2 adrenergic receptor (Homo sapiens, UniProt P07550).
Experiment [4] concerns the target Beta-1 adrenergic receptor (Homo sapiens, UniProt P08588).
Experiment [5] has as its target T3, Alpha-2A adrenergic receptor (Homo sapiens, UniProt P08913).
T3 sequence (P08913 whole entry): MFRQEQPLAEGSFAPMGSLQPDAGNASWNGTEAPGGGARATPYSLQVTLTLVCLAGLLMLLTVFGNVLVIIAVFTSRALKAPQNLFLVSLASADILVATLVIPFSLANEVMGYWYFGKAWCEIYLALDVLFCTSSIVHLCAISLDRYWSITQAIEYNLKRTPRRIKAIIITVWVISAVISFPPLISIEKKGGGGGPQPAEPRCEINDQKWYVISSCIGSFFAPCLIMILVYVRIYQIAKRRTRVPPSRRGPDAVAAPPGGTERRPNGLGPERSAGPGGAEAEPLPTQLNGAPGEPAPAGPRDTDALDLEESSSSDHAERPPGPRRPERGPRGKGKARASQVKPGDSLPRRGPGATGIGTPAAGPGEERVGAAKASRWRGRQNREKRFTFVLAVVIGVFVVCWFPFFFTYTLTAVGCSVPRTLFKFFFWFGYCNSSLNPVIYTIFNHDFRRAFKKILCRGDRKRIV

Beta-2 adrenergic receptor, sequence (P07550 whole entry): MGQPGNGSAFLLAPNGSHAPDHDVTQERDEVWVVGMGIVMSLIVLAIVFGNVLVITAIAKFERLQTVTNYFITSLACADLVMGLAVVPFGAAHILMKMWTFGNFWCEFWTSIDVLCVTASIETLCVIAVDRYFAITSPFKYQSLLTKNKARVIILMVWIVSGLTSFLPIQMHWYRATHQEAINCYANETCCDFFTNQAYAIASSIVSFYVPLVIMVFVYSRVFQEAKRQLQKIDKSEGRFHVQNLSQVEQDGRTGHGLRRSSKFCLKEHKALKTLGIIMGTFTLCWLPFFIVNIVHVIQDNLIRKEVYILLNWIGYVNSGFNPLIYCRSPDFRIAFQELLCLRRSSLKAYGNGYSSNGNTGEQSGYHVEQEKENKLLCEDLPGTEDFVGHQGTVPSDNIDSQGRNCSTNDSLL
Beta-1 adrenergic receptor, sequence (P08588 whole entry): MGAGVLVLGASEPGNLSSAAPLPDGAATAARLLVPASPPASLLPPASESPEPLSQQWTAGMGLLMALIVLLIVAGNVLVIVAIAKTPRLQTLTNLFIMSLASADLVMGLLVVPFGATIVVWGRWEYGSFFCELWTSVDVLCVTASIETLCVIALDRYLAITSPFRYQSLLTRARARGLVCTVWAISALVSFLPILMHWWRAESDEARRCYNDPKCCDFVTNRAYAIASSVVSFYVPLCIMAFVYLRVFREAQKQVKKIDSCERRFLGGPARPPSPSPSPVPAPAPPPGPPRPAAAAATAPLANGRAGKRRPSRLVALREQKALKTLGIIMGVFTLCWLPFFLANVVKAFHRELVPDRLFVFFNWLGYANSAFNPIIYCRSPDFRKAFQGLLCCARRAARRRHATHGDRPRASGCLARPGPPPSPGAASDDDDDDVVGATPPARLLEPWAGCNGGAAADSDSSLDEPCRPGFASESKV

Consider `Cc1cccc([C@@H](C)c2cnc[nH]2)c1C`, for which the Ki in experiment [1] is 15.1 nM and 2.51 nM.
For `NC1=NC2(CCc3ccccc3C2)CO1` (stereo not given) [S18616], the Ki in experiment [2] is 0.251 nM; in experiment [3], 1000 nM; in experiment [4], 1000 nM; in experiment [5], 0.562 nM and 0.631 nM and 0.316 nM.
